The supplement of paper PMC11208160

Experiment: recombinant barcode read abundance after kanamycin selection (control-corrected) (log10(CPM+1)); higher = more efficient recombination; sequences stand for … in AGTGCAGAGAAAATCGGCCAGTTTTCTCTGCCTGCAGTCCGCATGCCGT…ATTTATGCAGCGGACTGCCTTTCTCCCAAAGTGATAAACCGGACAGTATCATGGACCGGTTTTCCCGGTAATCCGTATTTGCAAGGTTGGTTTCACT; site = the 11-nt target
Procedure: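 Same pooled E. coli target screen (IS621 bridge recombinase, kanamycin selection, control-corrected CPM, mean of 2 biological replicates). Here the two core-binding nucleotides of the LTG and RTG of the bridge RNA target-binding loop are mutated. Target and donor CT cores are held constant, and the other 9 guide positions match the target. The target is read from the library oligo sequence. Molecule = full bridge RNA written as DNA: nt 1-80 from the library oligo, rest WT scaffold.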

Sequence | recombinant barcode read abundance (log10)
AAACACACTTGGGTTCTAACCTGTTGCCTTT [AAACACACTAG_LTGcore_CT_RTGcore_AA] (site AAACACACTAG) (LTG core: CT, RTG core: AA) | 0.938
AAACACAGATGGGTTCTAACCTGTTGCCTAG [AAACACACTAG_LTGcore_GA_RTGcore_CT] (site AAACACACTAG) (LTG core: GA, RTG core: CT) | 0.0116
AAACACATGTGGGTTCTAACCTGTTGCCTCA [AAACACACTAG_LTGcore_TG_RTGcore_TG] (site AAACACACTAG) (LTG core: TG, RTG core: TG) | 0.0962
AAACACATTTGGGTTCTAACCTGTTGCCTAG [AAACACACTAG_LTGcore_TT_RTGcore_CT] (site AAACACACTAG) (LTG core: TT, RTG core: CT) | 0.0289
AAACAGTAGTGGGTTCTAACCTGTTGCCTCT [AAACAGTCTAG_LTGcore_AG_RTGcore_AG] (site AAACAGTCTAG) (LTG core: AG, RTG core: AG) | 0.13
AAACAGTATTGGGTTCTAACCTGTTGCCTAT [AAACAGTCTAG_LTGcore_AT_RTGcore_AT] (site AAACAGTCTAG) (LTG core: AT, RTG core: AT) | 0.204
AAACAGTCTTGGGTTCTAACCTGTTGCCTAG [AAACAGTCTAG_LTGcore_CT_RTGcore_CT] (site AAACAGTCTAG) (LTG core: CT, RTG core: CT) | 2.46
AAACAGTCTTGGGTTCTAACCTGTTGCCTGA [AAACAGTCTAG_LTGcore_CT_RTGcore_TC] (site AAACAGTCTAG) (LTG core: CT, RTG core: TC) | 0.883
AAACAGTCTTGGGTTCTAACCTGTTGCCTGG [AAACAGTCTAG_LTGcore_CT_RTGcore_CC] (site AAACAGTCTAG) (LTG core: CT, RTG core: CC) | 0.921
AAACAGTCTTGGGTTCTAACCTGTTGCCTTA [AAACAGTCTAG_LTGcore_CT_RTGcore_TA] (site AAACAGTCTAG) (LTG core: CT, RTG core: TA) | 1.78
AAACAGTGCTGGGTTCTAACCTGTTGCCTAG [AAACAGTCTAG_LTGcore_GC_RTGcore_CT] (site AAACAGTCTAG) (LTG core: GC, RTG core: CT) | 0.16
AAACAGTTCTGGGTTCTAACCTGTTGCCTGA [AAACAGTCTAG_LTGcore_TC_RTGcore_TC] (site AAACAGTCTAG) (LTG core: TC, RTG core: TC) | 0.262
AAACATGAATGGGTTCTAACCTGTTGCCTTT [AAACATGCTAG_LTGcore_AA_RTGcore_AA] (site AAACATGCTAG) (LTG core: AA, RTG core: AA) | 0.133
AAACATGACTGGGTTCTAACCTGTTGCCTAG [AAACATGCTAG_LTGcore_AC_RTGcore_CT] (site AAACATGCTAG) (LTG core: AC, RTG core: CT) | 0.0862
AAACATGATTGGGTTCTAACCTGTTGCCTAT [AAACATGCTAG_LTGcore_AT_RTGcore_AT] (site AAACATGCTAG) (LTG core: AT, RTG core: AT) | 0.0454
AAACATGCATGGGTTCTAACCTGTTGCCTAG [AAACATGCTAG_LTGcore_CA_RTGcore_CT] (site AAACATGCTAG) (LTG core: CA, RTG core: CT) | 0.141
AAACATGCATGGGTTCTAACCTGTTGCCTTG [AAACATGCTAG_LTGcore_CA_RTGcore_CA] (site AAACATGCTAG) (LTG core: CA, RTG core: CA) | 0.0197
AAACATGCTTGGGTTCTAACCTGTTGCCTAG [AAACATGCTAG_LTGcore_CT_RTGcore_CT] (site AAACATGCTAG) (LTG core: CT, RTG core: CT) | 1.43
AAACATGCTTGGGTTCTAACCTGTTGCCTGA [AAACATGCTAG_LTGcore_CT_RTGcore_TC] (site AAACATGCTAG) (LTG core: CT, RTG core: TC) | 1.4
AAACATGGCTGGGTTCTAACCTGTTGCCTAG [AAACATGCTAG_LTGcore_GC_RTGcore_CT] (site AAACATGCTAG) (LTG core: GC, RTG core: CT) | 0.349
AAACATGGCTGGGTTCTAACCTGTTGCCTGC [AAACATGCTAG_LTGcore_GC_RTGcore_GC] (site AAACATGCTAG) (LTG core: GC, RTG core: GC) | 0.233
AAACATGTGTGGGTTCTAACCTGTTGCCTAG [AAACATGCTAG_LTGcore_TG_RTGcore_CT] (site AAACATGCTAG) (LTG core: TG, RTG core: CT) | 0.0752

Sequence | recombinant barcode read abundance (log10)
AAACATGTTTGGGTTCTAACCTGTTGCCTAA [AAACATGCTAG_LTGcore_TT_RTGcore_TT] (site AAACATGCTAG) (LTG core: TT, RTG core: TT) | 0.632
ACGGGACAGTGGGTTCTAACCTGTTGCAGAG [ACGGGACCTCT_LTGcore_AG_RTGcore_CT] (site ACGGGACCTCT) (LTG core: AG, RTG core: CT) | 0.111
ACGGGACCATGGGTTCTAACCTGTTGCAGAG [ACGGGACCTCT_LTGcore_CA_RTGcore_CT] (site ACGGGACCTCT) (LTG core: CA, RTG core: CT) | 2.09
ACGGGACCATGGGTTCTAACCTGTTGCAGTG [ACGGGACCTCT_LTGcore_CA_RTGcore_CA] (site ACGGGACCTCT) (LTG core: CA, RTG core: CA) | 0.127
ACGGGACCCTGGGTTCTAACCTGTTGCAGAG [ACGGGACCTCT_LTGcore_CC_RTGcore_CT] (site ACGGGACCTCT) (LTG core: CC, RTG core: CT) | 2.22
ACGGGACCTTGGGTTCTAACCTGTTGCAGTT [ACGGGACCTCT_LTGcore_CT_RTGcore_AA] (site ACGGGACCTCT) (LTG core: CT, RTG core: AA) | 0.29
ACGGGACGCTGGGTTCTAACCTGTTGCAGGC [ACGGGACCTCT_LTGcore_GC_RTGcore_GC] (site ACGGGACCTCT) (LTG core: GC, RTG core: GC) | 0.151
ACGGGACGTTGGGTTCTAACCTGTTGCAGAC [ACGGGACCTCT_LTGcore_GT_RTGcore_GT] (site ACGGGACCTCT) (LTG core: GT, RTG core: GT) | 0.0225
ACGGGACTCTGGGTTCTAACCTGTTGCAGAG [ACGGGACCTCT_LTGcore_TC_RTGcore_CT] (site ACGGGACCTCT) (LTG core: TC, RTG core: CT) | 0.0751
AGGAGGTCTTGGGTTCTAACCTGTTGCCTTT [AGGAGGTCTAG_LTGcore_CT_RTGcore_AA] (site AGGAGGTCTAG) (LTG core: CT, RTG core: AA) | 1.32
AGGAGGTGGTGGGTTCTAACCTGTTGCCTAG [AGGAGGTCTAG_LTGcore_GG_RTGcore_CT] (site AGGAGGTCTAG) (LTG core: GG, RTG core: CT) | 0.165
AGGAGGTGTTGGGTTCTAACCTGTTGCCTAG [AGGAGGTCTAG_LTGcore_GT_RTGcore_CT] (site AGGAGGTCTAG) (LTG core: GT, RTG core: CT) | 0
AGGCCTCAATGGGTTCTAACCTGTTGCCTAG [AGGCCTCCTAG_LTGcore_AA_RTGcore_CT] (site AGGCCTCCTAG) (LTG core: AA, RTG core: CT) | 0.0132
AGGCCTCCATGGGTTCTAACCTGTTGCCTTG [AGGCCTCCTAG_LTGcore_CA_RTGcore_CA] (site AGGCCTCCTAG) (LTG core: CA, RTG core: CA) | 0.128
AGGCCTCCTTGGGTTCTAACCTGTTGCCTAT [AGGCCTCCTAG_LTGcore_CT_RTGcore_AT] (site AGGCCTCCTAG) (LTG core: CT, RTG core: AT) | 0.576
AGGCCTCCTTGGGTTCTAACCTGTTGCCTCT [AGGCCTCCTAG_LTGcore_CT_RTGcore_AG] (site AGGCCTCCTAG) (LTG core: CT, RTG core: AG) | 0.369
AGGCCTCCTTGGGTTCTAACCTGTTGCCTTC [AGGCCTCCTAG_LTGcore_CT_RTGcore_GA] (site AGGCCTCCTAG) (LTG core: CT, RTG core: GA) | 0.109
AGGCCTCGCTGGGTTCTAACCTGTTGCCTGC [AGGCCTCCTAG_LTGcore_GC_RTGcore_GC] (site AGGCCTCCTAG) (LTG core: GC, RTG core: GC) | 0.137
AGGCCTCTATGGGTTCTAACCTGTTGCCTAG [AGGCCTCCTAG_LTGcore_TA_RTGcore_CT] (site AGGCCTCCTAG) (LTG core: TA, RTG core: CT) | 0.0484
AGGCCTCTCTGGGTTCTAACCTGTTGCCTAG [AGGCCTCCTAG_LTGcore_TC_RTGcore_CT] (site AGGCCTCCTAG) (LTG core: TC, RTG core: CT) | 0.137
AGGCGGGACTGGGTTCTAACCTGTTGCGGAG [AGGCGGGCTCC_LTGcore_AC_RTGcore_CT] (site AGGCGGGCTCC) (LTG core: AC, RTG core: CT) | 0.555
AGGCGGGACTGGGTTCTAACCTGTTGCGGGT [AGGCGGGCTCC_LTGcore_AC_RTGcore_AC] (site AGGCGGGCTCC) (LTG core: AC, RTG core: AC) | 0.011
